Measured values as given in US8192962B2, “Processes for detecting toxic substances” (Daikin Industries, Ltd., priority 2001, dated 2012).

System: Genes belonging to other category
Assay: DNA chip mRNA expression in yeast, genes belonging to other category (Table 9)
Format: cell-based, Saccharomyces cerevisiae S288C
Procedure: Yeast (Saccharomyces cerevisiae S288C (α SUC2mal mel gap2 CUP1)) were incubated at 25° C. on YPD medium (yeast extract 1%, polypepton 2%, glucose 2%). One of toxic chemical substances was added to the cells at logarithmic growth phase, and the cells were further incubated for two hours. Cells were cultured without any chemical substance in the same condition, and were used as control. Concentrations of the chemical substances were defined to inhibit the growth of the yeast but not lead to death.
After completion of the incubation, the culture was centrifuged to collect the cells. To the cells, sodium acetate buffer (50 mM sodium acetate, 10 mM EDTA, 1% SDS) was added, and the mixture was shaken at 65° C. for five minutes, followed by returning to room temperature, and obtaining the supernatant, of which the procedures were repeated two times. To the supernatant, ½ amount of a solution of phenol/chloroform was added, and the mixture was centrifuged to give a supernatant, which was added with an equal amount of chloroform, and the mixture was centrifuged to give a supernatant. To the supernatant, an equal amount of isopropanol containing 0.3 M sodium acetate was added, and the mixture was allowed to stand at room temperature for 30 minutes, after which the mixture was centrifuged to give a sediment of the whole RNAs. Seventy % ethanol was added to the sediment, and the mixture was again centrifuged to give a sediment, which was then dried and dissolved in water. mRNA was isolated from the whole RNAs as followings. In view of the fact that a poly A chain is attached to the 3′ terminus of mRNA, a polynucleotide having a poly T structure which was immobilized on the surface of latex beads was used to trap the mRNA, and then the mRNA was washed and eluted with spine column (Oligotex-dT30<Super>mRNA Purification Kit, Takara). Reverse transcription of the mRNA was conducted with a reverse transcriptase (Super Script II Reverse Transcriptase; catalogue No. 18064-014, GibcoBRL) using fluorescence-labeled nucleotides to give cDNAs that were introduced with Cy3-dUTP or Cy5-dUTP during the reverse transcription.
The labeled cDNAs were dissolved in TE buffer (10mM Tris-HCl/1 mM EDTA, pH8.0), and the solution was dropped on the DNA chip containing the whole genes of yeast (DNA Chip Research Inc. Japan) so that the cDNAs were hybridized on the DNA chip at 65° C. for over 12 hours. The fluoresces intensity of the DNA chip was read with a scanner, and the ratio relative to the fluorescence intensity resulting from the absence of chemical substance was estimated as the following, which is shown in Tables 1 to 9: […]

C=CC=O [(14), acrolein]
The level of expressed mRNA in the presence of chemical substance/The level of expressed mRNA in the absence of chemical substance (yeast gene YAL055W): 1.6
The level of expressed mRNA in the presence of chemical substance/The level of expressed mRNA in the absence of chemical substance (yeast gene YAR009C): 1.0
The level of expressed mRNA in the presence of chemical substance/The level of expressed mRNA in the absence of chemical substance (yeast gene YAR010C): 1.0
The level of expressed mRNA in the presence of chemical substance/The level of expressed mRNA in the absence of chemical substance (yeast gene YAR062W): 1.1
The level of expressed mRNA in the presence of chemical substance/The level of expressed mRNA in the absence of chemical substance (yeast gene YBL005W-A): 1.4
The level of expressed mRNA in the presence of chemical substance/The level of expressed mRNA in the absence of chemical substance (yeast gene YBL041W): 2.0
The level of expressed mRNA in the presence of chemical substance/The level of expressed mRNA in the absence of chemical substance (yeast gene YBL043W): 1.9
The level of expressed mRNA in the presence of chemical substance/The level of expressed mRNA in the absence of chemical substance (yeast gene YBL078C): 3.6
The level of expressed mRNA in the presence of chemical substance/The level of expressed mRNA in the absence of chemical substance (yeast gene YBL101W-A): 1.5
The level of expressed mRNA in the presence of chemical substance/The level of expressed mRNA in the absence of chemical substance (yeast gene YBL102W): 1.1
The level of expressed mRNA in the presence of chemical substance/The level of expressed mRNA in the absence of chemical substance (yeast gene YBR010W): 1.0
The level of expressed mRNA in the presence of chemical substance/The level of expressed mRNA in the absence of chemical substance (yeast gene YBR026C): 1.5
The level of expressed mRNA in the presence of chemical substance/The level of expressed mRNA in the absence of chemical substance (yeast gene YBR139W): 1.1
The level of expressed mRNA in the presence of chemical substance/The level of expressed mRNA in the absence of chemical substance (yeast gene YBR170C): 1.3
The level of expressed mRNA in the presence of chemical substance/The level of expressed mRNA in the absence of chemical substance (yeast gene YBR173C): 3.0
The level of expressed mRNA in the presence of chemical substance/The level of expressed mRNA in the absence of chemical substance (yeast gene YBR177C): 1.3
The level of expressed mRNA in the presence of chemical substance/The level of expressed mRNA in the absence of chemical substance (yeast gene YBR214W): 0.9
The level of expressed mRNA in the presence of chemical substance/The level of expressed mRNA in the absence of chemical substance (yeast gene YBR239C): 1.1
The level of expressed mRNA in the presence of chemical substance/The level of expressed mRNA in the absence of chemical substance (yeast gene YBR286W): 1.5
The level of expressed mRNA in the presence of chemical substance/The level of expressed mRNA in the absence of chemical substance (yeast gene YBR290W): 1.4
The level of expressed mRNA in the presence of chemical substance/The level of expressed mRNA in the absence of chemical substance (yeast gene YCL020W): 1.7
The level of expressed mRNA in the presence of chemical substance/The level of expressed mRNA in the absence of chemical substance (yeast gene YCL027W): 1.2
The level of expressed mRNA in the presence of chemical substance/The level of expressed mRNA in the absence of chemical substance (yeast gene YCR004C): 3.7
The level of expressed mRNA in the presence of chemical substance/The level of expressed mRNA in the absence of chemical substance (yeast gene YCR062W): 1.0
The level of expressed mRNA in the presence of chemical substance/The level of expressed mRNA in the absence of chemical substance (yeast gene YCR069W): 1.0
The level of expressed mRNA in the presence of chemical substance/The level of expressed mRNA in the absence of chemical substance (yeast gene YCR071C): 1.7
The level of expressed mRNA in the presence of chemical substance/The level of expressed mRNA in the absence of chemical substance (yeast gene YCR088W): 0.9
The level of expressed mRNA in the presence of chemical substance/The level of expressed mRNA in the absence of chemical substance (yeast gene YDL008W): 2.2
The level of expressed mRNA in the presence of chemical substance/The level of expressed mRNA in the absence of chemical substance (yeast gene YDL018C): 1.5
The level of expressed mRNA in the presence of chemical substance/The level of expressed mRNA in the absence of chemical substance (yeast gene YDL137W): 1.4
The level of expressed mRNA in the presence of chemical substance/The level of expressed mRNA in the absence of chemical substance (yeast gene YDL238C): 1.2
The level of expressed mRNA in the presence of chemical substance/The level of expressed mRNA in the absence of chemical substance (yeast gene YDR055W): 0.9
The level of expressed mRNA in the presence of chemical substance/The level of expressed mRNA in the absence of chemical substance (yeast gene YDR084C): 1.0
The level of expressed mRNA in the presence of chemical substance/The level of expressed mRNA in the absence of chemical substance (yeast gene YDR085C): 1.6
The level of expressed mRNA in the presence of chemical substance/The level of expressed mRNA in the absence of chemical substance (yeast gene YDR104C): 1.4
The level of expressed mRNA in the presence of chemical substance/The level of expressed mRNA in the absence of chemical substance (yeast gene YDR115W): 1.5
The level of expressed mRNA in the presence of chemical substance/The level of expressed mRNA in the absence of chemical substance (yeast gene YDR125C): 1.0
The level of expressed mRNA in the presence of chemical substance/The level of expressed mRNA in the absence of chemical substance (yeast gene YDR168W): 1.4
The level of expressed mRNA in the presence of chemical substance/The level of expressed mRNA in the absence of chemical substance (yeast gene YDR259C): 1.5
The level of expressed mRNA in the presence of chemical substance/The level of expressed mRNA in the absence of chemical substance (yeast gene YDR304C): 1.7
The level of expressed mRNA in the presence of chemical substance/The level of expressed mRNA in the absence of chemical substance (yeast gene YDR315C): 1.4
The level of expressed mRNA in the presence of chemical substance/The level of expressed mRNA in the absence of chemical substance (yeast gene YDR358W): 1.2
The level of expressed mRNA in the presence of chemical substance/The level of expressed mRNA in the absence of chemical substance (yeast gene YDR373W): 2.1
The level of expressed mRNA in the presence of chemical substance/The level of expressed mRNA in the absence of chemical substance (yeast gene YDR378C): 1.4
The level of expressed mRNA in the presence of chemical substance/The level of expressed mRNA in the absence of chemical substance (yeast gene YDR388W): 0.6
The level of expressed mRNA in the presence of chemical substance/The level of expressed mRNA in the absence of chemical substance (yeast gene YDR403W): 1.1
The level of expressed mRNA in the presence of chemical substance/The level of expressed mRNA in the absence of chemical substance (yeast gene YDR427W): 1.0
